In PubChem BioAssay (NCI):
Several values for one entry are separate records, joined by “and”; a condition that tells them apart may be missing. Identical values can stand only once.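 Five compound concentrations were applied to cells in 96-well plates for 48 hours; endpoints were derived by simple linear interpolation of the resulting dose-response curve. GI50 is the concentration that inhibits growth by half. At the TGI there is no net growth.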

Columns and labels:
Experiment in all cases: NCI anticancer screen, dose series, 48 h
ACHN renal = tested on: ACHN renal
COLO 205 colon = tested on: COLO 205 colon
HCC-2998 colon = tested on: HCC-2998 colon
HCT-15 colon = tested on: HCT-15 colon
HS 578T breast = tested on: HS 578T breast
LOX IMVI melanoma = tested on: LOX IMVI melanoma
MDA-MB-435 = tested on: MDA-MB-435
MOLT-4 leukemia = tested on: MOLT-4 leukemia
NCI/ADR-RES ovarian = tested on: NCI/ADR-RES ovarian
SR leukemia = tested on: SR leukemia

Structure (SMILES) | GI50 (ACHN renal) [µM] | TGI (ACHN renal) [µM] | GI50 (COLO 205 colon) | TGI (COLO 205 colon) [µM] | GI50 (HCC-2998 colon) [µM] | TGI (HCC-2998 colon) [µM] | GI50 (HCT-15 colon) [µM] | TGI (HCT-15 colon) [µM] | GI50 (HS 578T breast) [µM] | TGI (HS 578T breast) [µM] | GI50 (LOX IMVI melanoma) [µM] | TGI (LOX IMVI melanoma) [µM] | GI50 (MDA-MB-435) [µM] | TGI (MDA-MB-435) [µM] | GI50 (MOLT-4 leukemia) [µM] | TGI (MOLT-4 leukemia) [µM] | GI50 (NCI/ADR-RES ovarian) [µM] | TGI (NCI/ADR-RES ovarian) [µM] | GI50 (SR leukemia) [µM] | TGI (SR leukemia) [µM]
COc1ccc(NC(=O)c2ccc(NC3=C(Cl)C(=O)N(Cc4ccccc4)C3=O)cc2)cc1 | 3.64 | 12.7 | 10.9 µM | > 100 | 15.6 | 31.1 | 4.04 | 17.3 | 15 | 62.9 | 3.06 | 8.43 | 5.64 | 18.3 | 2.6 | > 100 | 11.9 | 38.7 | 0.766 | 3.61
CCOC(=O)c1cnc2ccc(Cl)cc2c1NCCCN(C)C | 9.85 | > 100 | 10.5 µM | 24.6 | 38.4 | > 100 | 25.2 | > 100 | 29.5 | > 100 | 14.1 | 34.1 | 17.9 | 43.5 | 16.3 | 63.5 | 25 | > 100 | 6.42 | 70.4
Clc1ccc(Cl)c(N/N=C\c2c[nH]c3ccccc23)c1 | 12 | 32.6 | 14 µM | 30.4 | 13.6 | 29.9 | 8.81 | > 100 | 3.89 | 23.1 | 4.21 | 74.7 | 12.2 | 28.1 | 0.293 | 11.8 | 15.6 | 34.8 | 4.14 | 32.2
CC[C@]1(O)C[C@@H]2CN(Cc3c([nH]c4ccccc34)[C@@](C(=O)OC)(c3cc4c(cc3OC)N(C)[C@H]3[C@@](O)(C(=O)OC)[C@H](OC(C)=O)[C@]5(CC)[C@@H]6C[C@@H]6CN6CC[C@]43[C@@H]65)C2)C1 | 3.38 | > 4.38 | 0.0298 µM | 0.252 | 0.116 | > 4.38 | 2.78 | > 4.38 | 0.0858 | > 1.33 | 0.0304 | > 4.38 | 0.00612 | 0.0235 | 0.0484 | > 4.38 | > 4.38 | > 4.38 | 0.0174 | > 4.38
Cc1ccc(CCC(=O)Nc2ncc(Cc3cc(Cl)ccc3Cl)s2)o1 | 0.665 | 4.85 | 0.194 µM | 0.658 | 0.312 | 6.41 | 0.0546 | > 100 | 0.289 | 7.2 | 0.221 |  | 0.0286 | 0.0949 | 0.222 | > 44.2 | 0.159 | 1.41 | 0.0557 | 18.9
O=P(O)(O)OC1C(OP(=O)(O)O)C(OP(=O)(O)O)C(OP(=O)(O)O)C(OP(=O)(O)O)C1OP(=O)(O)O (centres undefined) | > 1700 | > 2000 | > 100 µM and > 500 µM and 1940 µM | > 2000 | > 2000 | > 2000 | > 2000 | > 2000 | > 2000 | > 2000 | > 2000 | > 2000 | > 1770 | > 2000 | > 1510 | > 2000 | > 2000 | > 2000 | > 1780 | > 2000
C=C1C(=O)OC(CCCCCCCC)C1C(=O)O (centres undefined) | 17.2 | 31 | 18.2 µM | 33.7 | 17.5 | 31.4 | 15.9 | 30.8 | 17.3 | > 86.6 | 13.5 | 26.9 | 17.6 | 40.4 | 22.2 | 54 | 21.6 | 59.7 | 5.57 | 44.9
COc1ccccc1/C=C1\COc2ccc(O)c(O)c2C1=O | 1.31 | 2.64 | 3.14 µM | 8.98 | 1.76 | 3.25 | 0.823 | 4.54 | 3.6 | > 100 | 1.26 | 2.66 | 1.57 | 4.96 | 1.79 | 19.1 | 1.88 | 6.64 | 0.407 | 11.9
O=C1CCC/C=C\C[C@H]2C=C(Cl)C(=O)/C2=C/C[C@H](CCCCC(F)(F)F)OC(=O)CCC/C=C\C[C@H]2C=C(Cl)C(=O)/C2=C/C[C@H](CCCCC(F)(F)F)O1 | 0.262 | 1.02 | 0.246 µM | 0.859 | 0.215 | 0.64 | 0.297 | 1.32 | 0.267 | 7.5 | 0.128 | 0.268 | 0.147 | 0.307 | 0.24 | 1.6 | 1.57 | 7.14 | 0.198 | 0.748
COc1ccc(CN2CCc3c(Cl)nc(N)nc3C2=O)c(OC)c1 | 20.4 | 48.5 | 16.3 µM | 30.6 | 17.3 | 31.6 | 10.4 | 24.3 | 19.2 | 50.5 | 13.2 | 26.7 | 16.4 | 39.5 | 2.46 | 34.6 | 27.2 | 87 | 1.03 | 10.7
COc1ccc(/C=C2/SC(=Nc3c(C)nn(-c4ccccc4)c3N)NC2=O)cc1 | 5.29 | 52.4 | 3.84 µM | 19.2 | 6.87 | 20.6 | 3.64 | 30.7 | 2.17 | 6.57 | 3.88 | 15.8 | 1.27 | 3.97 | 8.4 | > 100 | 4.36 | 39.4 | 3.63 | 18
COC1CC(OC2OC(CO)C(O)C(O)C2O)/C(=C\C#N)C(O)C1OC (centres undefined) |  | > 100 |  | > 100 |  | > 100 |  | > 100 |  | > 100 |  | > 100 |  | > 100 |  | > 100 |  | > 100 |  | > 100
O=c1c(Cl)nsnc1Cl |  | 14.7 |  | 3.87 |  | 35.2 |  | 51.1 |  | 78.9 |  | 27.2 |  | 28.1 |  | 4.09 |  | > 100 |  | 4.43
O=C(CCCCCCc1nc2ccc(Br)cc2[nH]1)NO | 0.671 | 3.41 | 0.975 µM | 5.07 | 0.777 | 3.08 | 1.69 | > 86.5 | 0.331 | 3.21 | 0.396 | 1.55 | 0.277 | 1.38 | 0.342 | > 100 | 0.216 | 1.87 | 0.148 | > 100
CC(C)Oc1cc(OCC(=O)O)cc(C(=O)N(CCC(N)=O)C(=O)Nc2ccc(C(=O)O)cc2OC(C)C)c1 | > 100 | > 100 | > 100 µM | > 100 | > 100 | > 100 | > 100 | > 100 | > 100 | > 100 | > 100 | > 100 | > 100 | > 100 | > 100 | > 100 | > 100 | > 100 | > 100 | > 100
CCN(CC)CCn1c(=N)n(CC(O)c2ccc(Cl)c(Cl)c2)c2ccccc21 (centres undefined) | 11.9 | 24.4 | 2.05 µM | 3.96 | 2.34 | 5.3 | 4.02 | 15.1 | 4.25 | 21.2 | 6.14 | 20.3 | 1.75 | 3.49 | 3.1 | 13.1 | 17.7 | 36.8 | 2.12 | 5.56
